# Measurements taken from PubChem BioAssay (NCI).
# Values joined by “and” are separate entries in the source; they are usually repeats but may differ in a detail not shown here. Equal values may be shown once.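 Results reflect a 48-hour exposure of cells in 96-well plates to compound at five concentrations. GI50 is the concentration that inhibits growth by half. TGI is the concentration that stops growth completely.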
# Tests used:
# Assay in all cases: DTP human tumour cell line panel, 48 h
# HCT-15 colon = system: HCT-15 colon
# HL-60(TB) leukemia = system: HL-60(TB) leukemia
# HOP-62 NSCLC = system: HOP-62 NSCLC
# HT29 colon = system: HT29 colon
# OVCAR-8 ovarian = system: OVCAR-8 ovarian
# RXF 393 renal = system: RXF 393 renal
# SNB-19 CNS = system: SNB-19 CNS
# NCI-H522 lung = system: NCI-H522 lung
# DU-145 prostate = system: DU-145 prostate
# MCF7 breast = system: MCF7 breast
SMILES,TGI (HCT-15 colon),TGI (HL-60(TB) leukemia),TGI (HOP-62 NSCLC),TGI (HT29 colon) [µM],TGI (OVCAR-8 ovarian) [µM],TGI (RXF 393 renal) [µM],TGI (SNB-19 CNS) [µM],TGI (NCI-H522 lung) [µM],GI50 (DU-145 prostate),TGI (DU-145 prostate),GI50 (HCT-15 colon),GI50 (HOP-62 NSCLC),GI50 (MCF7 breast),TGI (MCF7 breast),GI50 (OVCAR-8 ovarian),GI50 (RXF 393 renal) [µM],GI50 (SNB-19 CNS) [µM],GI50 (HL-60(TB) leukemia),GI50 (HT29 colon),GI50 (NCI-H522 lung) [µM]
Cc1c(C(=O)NCCO)[n+](=O)c2cc(Cl)ccc2n1[O-],> 100 µM,> 100 µM,> 100 µM,> 100,> 100,> 100,> 100,,,,,,,,,,,,,
CN(CN1C(=O)C2Cc3ccccc3CN2C1=O)c1ccccn1 (stereo not given),> 100 µM,> 100 µM,> 100 µM,,> 100,,> 100,> 100,,,,,,,,,,,,
Cn1c(=O)nc2n(-c3cccc(F)c3)c3ccccc3nc-2c1=O,52.3 µM,,> 100 µM,32.5,77.1,> 100,48.6,38.1,,,,,,,,,,,,
Nc1nnc2cc(Cl)ccc2n1,> 100 µM,,> 100 µM,,> 100,> 100,> 100,,> 100 µM,> 100 µM,> 100 µM,> 100 µM,> 100 µM,> 100 µM,> 100 µM,> 100,> 100,,,
CCNC(=O)C#CC(=O)NCC,> 61.4 µM,> 53.9 µM,> 100 µM,> 100,> 100,> 100,> 100,> 100,,,> 10 µM,,,,> 10 µM,> 100,> 10,> 10 µM,> 10 µM,
CC(=O)OCCOCNC(=S)N/N=C(\C)c1cnc2ccccc2n1,> 100 µM,80.8 µM,> 100 µM,> 100,> 100,> 100,> 100,76.7,,,,,,,,,,,,
C=C=C(CC)C(C(=O)OC)N(CC)CC (stereo not given),,> 100 µM,> 100 µM,> 100,> 100,> 100,> 100,> 100,,,,,,,,,,,,
O=C1C[C@@H]2C(COC(=O)c3ccccc3)N(OCc3ccccc3)C[C@@H]2O1 (stereo not given in full),> 100 µM,> 100 µM,> 100 µM,> 100,> 100,> 100,> 100,> 100,,,,,,,,,,,,
COc1ccc2c(c1OC)C1=C(C2=O)c2cc3c(cc2CCN1)OCO3,> 100 µM,53.9 µM,> 100 µM,43.3,> 100,> 100,,,,,,,,,,,,,,
CN1NC2(CCCCC2)ON=C1c1ccccc1,> 100 µM,> 100 µM,> 100 µM,> 100,> 100,> 100,> 100,> 100,,,,,,,,,,,,
C(=N\OCc1ccccc1)/c1ncccc1C1OCCO1,> 100 µM,> 100 µM,> 100 µM,> 100,> 100,> 100,> 100,> 100,,,,,,,,,,,,
Cc1nc2sc(C(=O)Nc3cccc4ccccc34)c(N)c2cc1C(=O)c1ccccc1,> 50 µM,4.31 µM,> 50 µM,> 50,> 50,,> 50,> 50,1.94 µM,> 50 µM,1.41 µM,2.53 µM,1.53 µM,> 50 µM,2.15 µM,,2.41,1.45 µM,1.81 µM,1.52
Cc1c(C(=O)c2ccccc2C(=O)O)c2ccccc2n1C,> 100 µM,> 100 µM,> 100 µM,> 100,> 100,> 100,,,,,,,,,,,,,,
CCOC(=O)C(Cc1c[nH]c2ccc(N(CCCl)CCCl)cc12)(NC(C)=O)C(=O)OCC,39.9 µM and 53.4 µM,12.1 µM and 9.89 µM,51.7 µM and 66.8 µM,77.4,45,,312,1.93,14.6 µM and 7.62 µM,70 µM and 58.1 µM,14.6 µM and 16.1 µM,14.4 µM and 10.1 µM,2.42 µM and 3.11 µM,26.8 µM and 96.6 µM,14.3 µM and 19.8 µM,,19.6,3.29 µM and 1.43 µM,16.9 µM and 13.9 µM,0.17
CC(=O)O[C@H]1CC[C@@]2(C)C(=CC[C@H]3C4=CC=C(C(C)=O)[C@@]4(C)CCC32)C1 (stereo not given in full),> 100 µM,> 100 µM,> 100 µM,> 100,66.3,63.7,> 100,46.1,,,,,,,,,,,,
CN(C)C(N)=NC#N,34.8 µM,> 100 µM,> 100 µM,> 100,> 100,74.8,> 100,> 100,,,,,,,,,,,,
CC(=O)O[C@H]1CC[C@@]2(C)C(=CC[C@H]3[C@@H]4C/C(=C\c5cccc(OCCN6CCOCC6)c5)[C@H](OC(C)=O)[C@@]4(C)CC[C@@H]32)C1,11.5 µM,14.6 µM,19.5 µM,5.11,20.8,,29.3,27.5,23.3 µM,> 100 µM,2.95 µM,6.29 µM,10.4 µM,84.5 µM,8.69 µM,,9.13,3.61 µM,2.16 µM,12.9
CCC(=O)C(C)C1=Nc2nnc(CCCCCCCc3nnc4n3C(=O)C(C(C)C(=O)CC)=N4)n2C1=O (stereo not given),> 100 µM,> 100 µM,> 100 µM,> 100,> 100,> 100,> 100,> 100,,,,,,,,,,,,
Cc1ccc(S(=O)(=O)NC(=O)NC23CC4CC(CC(F)(C4)C2)C3)cc1,,> 100 µM,> 100 µM,> 100,> 100,> 100,> 100,> 100,,,,,,,,,,,,
C1CCN(c2nsc(N3CCCCC3)n2)CC1,> 100 µM,> 100 µM,> 100 µM,> 100,> 100,> 100,> 100,> 100,,,,,,,,,,,,
COc1cccc(NC(=O)CC(=O)N2N=C(N(CCC#N)c3ccccc3C)CC2c2ccccc2)c1 (stereo not given),> 100 µM,> 100 µM,> 100 µM,> 100,> 100,> 100,> 100,> 100,,,,,,,,,,,,
